Source: publication PMC12700902 (Communications Biology, 2025)
pEC50: −log10 of the molar value. Values joined by “and” are separate entries in the source; they are usually repeats but may differ in a detail not shown here. Equal values may be shown once. “Also recorded” adds a separate entry of the source. Read-outs that look alike come from different tables or passages of the source. Each block holds one molecule with its values, some of them ahead of it.

Columns and labels:
A. mellifera α5 nAChR = A. mellifera α5 nAChR (Apis mellifera, UniProt A0A0H3V1C5); test: Two-electrode voltage clamp of X. laevis oocytes expressing the A. mellifera α5 nAChR (wild-type); format: cell-based; conditions: for normalised current response (Fig. 1c source data): single oocytes, normalised to maximal concentration of Fig. 1b
Procedure: (§1) Oocytes were mainly obtained either from Ecocyte (https://ecocyte-us.com/products/xenopus-oocyte-delivery-service/), which arrived ready for injection, or from the European Xenopus Resource Centre (https://xenopusresource.org/resources) as ovarian sections. In the latter case, oocytes were either prepared for injection by incubation in collagenase type I in OR2 (sodium chloride 82 mM, potassium chloride 2 mM, magnesium chloride 2 mM, HEPES 5 mM, pH 7.6) at 2 mg/ml for 45 min at room temperature and shaking at 150 RPM[19] or by manual defolliculation followed by incubation with 0.5 mg/ml collagenase type I in OR2 for 6 min at room temperature at 150 RPM. Oocyte nuclei were injected with 23 nl of A. mellifera α5 DNA cloned into the pCI vector[19] […] Mutant A. mellifera α5 subunits (in pCI) were injected at 100–500 ng/µl. […] Oocytes were clamped at −80 mV and responses were recorded on a flatbed chart recorder (Kipp and Zonen BD-11E, Delft, The Netherlands). The oocytes were continuously perfused with SOS at a flow rate of 10 ml/min. Oocytes were selected for experiments if responses were consistent for two or more applications of the normalising concentration of agonist. Test chemicals were applied at 3 min intervals. Agonist concentration response curves were created by measuring the response of the oocytes to different agonist concentrations in SOS, responses were normalised to the maximal response induced by the agonist. Amitraz (10 mM) was dissolved in DMSO and then at a working concentration in 1:1000 ratio in SOS. All other chemicals were either dissolved in distilled water to make frozen stocks (100 mM) or dissolved directly in SOS (10 mM) on the day of use. […] Oocytes were clamped at voltages ranging between −100 and +40 mV to determine the current voltage relationship.
Concentration-response data were fitted with the Hill equation: y=Imax/1/EC50/agonist^nH where y is the normalised current amplitude, Imax is the maximal response Imax/Iagonistmax , EC50 is the agonist concentration at half-maximal efficacy, [agonist] is the agonist concentration and nH is the Hill coefficient, to estimate the EC50 and Hill coefficient. Curve fitting was carried out using GraphPad software version 10 (GraphPad Software, La Jolla, CA, United States). […] The peak of the current responses was normalised to the agonist concentration that gave a maximal response. Error bars on graphs show standard error, ‘n’ indicates the number of experiments and ‘batch’ indicates the number of frogs these oocytes came from. Values are shown as mean ± 95% confidence limits.

[1] = test system: X. laevis oocytes injected with water only; test: Oocytes injected with water only; format: cell-based, Xenopus laevis
Procedure: as §1

[2] = test system: α5 subunit of D. melanogaster; conditions: homomeric receptor; cited from earlier work
[3] = 1 mM, applied 3 min after 5 mM ACh
[4] = Table 1 series, mean (95% confidence limits)
[5] = read-out: Maximum response relative to 5 mM ACh (%)
[6] = Table 1 series, oocytes clamped at −80 mV, mean (95% confidence limits), read-out: EC50

A. mellifera α5 nAChR, sequence (A0A0H3V1C5 entry or part of it): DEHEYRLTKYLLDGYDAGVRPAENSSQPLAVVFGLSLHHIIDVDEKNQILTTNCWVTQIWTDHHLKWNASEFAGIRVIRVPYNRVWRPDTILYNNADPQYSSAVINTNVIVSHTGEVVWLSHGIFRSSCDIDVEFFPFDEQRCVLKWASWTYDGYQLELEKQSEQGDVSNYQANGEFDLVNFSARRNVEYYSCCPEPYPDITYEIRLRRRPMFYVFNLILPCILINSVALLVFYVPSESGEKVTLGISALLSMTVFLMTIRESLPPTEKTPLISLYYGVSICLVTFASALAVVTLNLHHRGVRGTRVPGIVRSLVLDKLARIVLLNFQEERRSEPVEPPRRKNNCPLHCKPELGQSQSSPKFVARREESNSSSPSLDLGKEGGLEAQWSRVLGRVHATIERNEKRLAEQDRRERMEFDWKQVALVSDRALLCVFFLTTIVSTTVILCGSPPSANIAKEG

Molecule: α-bungarotoxin
antagonist action on ACh response (A. mellifera α5 nAChR): antagonistic actions
washing time after which response to 2 mM ACh was restored (A. mellifera α5 nAChR): 26 min

Molecule: COc1cc(CCO)ccc1O [homovanillyl alcohol]
agonist response (A. mellifera α5 nAChR; 100 μM or 1 mM): did not elicit a response; also recorded: no agonist actions

Molecule: NCC(=O)O [glycine]
agonist response (A. mellifera α5 nAChR; [3]): none of them were able to induce detectable responses; also recorded: no agonist actions

Molecule: NCCc1c[nH]c2ccc(O)cc12 [Serotonin]
Hill coefficient (A. mellifera α5 nAChR; [4]): 3.419 (2.503–4.335)
Emax (A. mellifera α5 nAChR; [5]): 238%

Hill coefficient (A. mellifera α5 nAChR): 2.220 (1.585–2.855)
effect of absence of Na+ on agonist response (A. mellifera α5 nAChR): eliminated the response
response on co-application (A. mellifera α5 nAChR): synergistic agonism
response when applied alone (A. mellifera α5 nAChR): did not induce detectable responses
Molecule: NCCc1ccc(O)c(O)c1 [Dopamine, dopamine]
response of water-injected oocytes [1]: no detectable response; also recorded: no responses were detected

Molecule: N[C@@H](CCC(=O)O)C(=O)O [glutamate]
agonist response (A. mellifera α5 nAChR; [3]): none of them were able to induce detectable responses; also recorded: no agonist actions

Hill coefficient (A. mellifera α5 nAChR; [4]): 3.727 (2.998–4.455)
pEC50 (A. mellifera α5 nAChR; [6]): 3.42
normalised current response (Fig. 1c source data) (A. mellifera α5 nAChR; log[Agonist] M -2.22185, listed as OA): 1.1 and 0.809
normalised current response (Fig. 1c source data) (A. mellifera α5 nAChR; log[Agonist] M -3): 1
normalised current response (Fig. 1c source data) (A. mellifera α5 nAChR; log[Agonist] M -3.30103, listed as OA): 0.827 and 0.623
normalised current response (Fig. 1c source data) (A. mellifera α5 nAChR; log[Agonist] M -5): 0
Emax at 1000 µM (A. mellifera α5 nAChR; [5]): 899%
type of agonist action relative to ACh (A. mellifera α5 nAChR; wild-type): superagonists
Molecule: NCC(O)c1ccc(O)cc1 (stereo not shown) [Octopamine, octopamine]
normalised current response (Fig. 1c source data) (A. mellifera α5 nAChR; log[Agonist] M -2.52288, listed as OA): 0.943 and 1.14 and 0.971 and 0.986 and 0.935 and 1.1
normalised current response (Fig. 1c source data) (A. mellifera α5 nAChR; log[Agonist] M -3.22185, listed as OA): 0.892 and 0.674 and 0.971 and 0.901 and 1.01 and 0.859
normalised current response (Fig. 1c source data) (A. mellifera α5 nAChR; log[Agonist] M -3.52288, listed as OA): 0.284 and 0.276 and 0.462 and 0.451 and 0.389 and 0.232
response of water-injected oocytes [1]: no tyramine and octopamine responses

Molecule: NCCCC(=O)O [GABA, γ-aminobutyric acid]
agonist response (A. mellifera α5 nAChR; [3]): none of them were able to induce detectable responses; also recorded: no agonist actions

Molecule: NCCc1ccc(O)cc1 [Tyramine, tyramine]
Hill coefficient (A. mellifera α5 nAChR; [4]): 1.918 (1.355–2.481)
pEC50 (A. mellifera α5 nAChR; [6]): 4.04
normalised current response (Fig. 1c source data) (A. mellifera α5 nAChR; log[Agonist] M -3): 1
normalised current response (Fig. 1c source data) (A. mellifera α5 nAChR; log[Agonist] M -4, listed as TA): 0.538 and 0.456 and 0.597 and 0.416 and 0.62
normalised current response (Fig. 1c source data) (A. mellifera α5 nAChR; log[Agonist] M -5): 0
Emax at 1000 µM (A. mellifera α5 nAChR; [5]): 770%
type of agonist action relative to ACh (A. mellifera α5 nAChR; wild-type): superagonists
response of water-injected oocytes [1]: no tyramine and octopamine responses

Molecule: NCCc1c[nH]cn1 [Histamine, histamine]
Hill coefficient (A. mellifera α5 nAChR): 2.500 (1.050–3.950)
type of agonist action relative to ACh (A. mellifera α5 nAChR): partial agonist
pEC50 (A. mellifera α5 nAChR; [6]): 2.47
Emax at 5000 µM (A. mellifera α5 nAChR; [5]): 45.3%

Molecule: C[N+](C)(C)CCO [Choline]
Hill coefficient (A. mellifera α5 nAChR): 2.043 (0.9065–3.180)
pEC50 (A. mellifera α5 nAChR; EC50): 2.04
Emax (A. mellifera α5 nAChR; [5]): 100%

Molecule: Cc1ccc(/N=C/N(C)/C=N/c2ccc(C)cc2C)c(C)c1 [amitraz]
antagonist action (A. mellifera α5 nAChR; 10 µM coapplied with 400 µM octopamine): no antagonist actions; also recorded: nor antagonistic actions
agonist action (A. mellifera α5 nAChR; 10 µM, applied 3 min after 5 mM ACh): no agonist actions; also recorded: did not show any agonist actions

Molecule: CC(=O)OCC[N+](C)(C)C [Acetylcholine, acetylcholine]
Hill coefficient (A. mellifera α5 nAChR): 2.304 (1.886–2.721)
effect of absence of Na+ on agonist response (A. mellifera α5 nAChR): eliminated the response
response on co-application (A. mellifera α5 nAChR): synergistic agonism
response when applied alone (A. mellifera α5 nAChR): did not induce detectable responses
shape of concentration response curve (A. mellifera α5 nAChR): biphasic concentration response curve
Emax (A. mellifera α5 nAChR; [5]): 100%
pEC50 [2]: 5.06
